Test results taken from ChEMBL document CHEMBL5291721, “A preclinical secondary pharmacology resource illuminates target-adverse drug reaction associations of marketed drugs” (Nat Commun, 2023).

Key:
[1] = molecular target: Voltage-dependent L-type calcium channel subunit alpha-1C (Rattus norvegicus, UniProt P22002); format: functional
[2] = molecular target: Muscarinic acetylcholine receptor M3 (Homo sapiens, UniProt P20309)
[3] = molecular target: T1, Alpha-1A adrenergic receptor (Homo sapiens, UniProt P35348); format: functional, cell-based
T1 sequence (P35348 whole entry): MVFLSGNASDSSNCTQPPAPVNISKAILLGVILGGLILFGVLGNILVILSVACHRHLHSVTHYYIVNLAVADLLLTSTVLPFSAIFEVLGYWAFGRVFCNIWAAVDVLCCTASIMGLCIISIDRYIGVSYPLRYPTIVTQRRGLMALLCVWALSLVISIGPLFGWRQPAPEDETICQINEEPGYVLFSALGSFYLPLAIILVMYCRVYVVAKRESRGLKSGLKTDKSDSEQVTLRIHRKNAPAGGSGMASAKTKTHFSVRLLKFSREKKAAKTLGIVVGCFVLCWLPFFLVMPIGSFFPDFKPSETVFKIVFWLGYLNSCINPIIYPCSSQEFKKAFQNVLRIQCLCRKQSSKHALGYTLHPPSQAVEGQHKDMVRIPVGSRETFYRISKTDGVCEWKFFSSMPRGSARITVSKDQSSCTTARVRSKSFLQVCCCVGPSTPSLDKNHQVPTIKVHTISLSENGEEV

[4] = molecular target: Histamine H3 receptor (Homo sapiens, UniProt Q9Y5N1)
[5] = molecular target: Histamine H1 receptor (Homo sapiens, UniProt P35367)
[6] = molecular target: T2, Progesterone receptor (Homo sapiens, UniProt P06401); format: functional
T2 sequence (P06401 whole entry): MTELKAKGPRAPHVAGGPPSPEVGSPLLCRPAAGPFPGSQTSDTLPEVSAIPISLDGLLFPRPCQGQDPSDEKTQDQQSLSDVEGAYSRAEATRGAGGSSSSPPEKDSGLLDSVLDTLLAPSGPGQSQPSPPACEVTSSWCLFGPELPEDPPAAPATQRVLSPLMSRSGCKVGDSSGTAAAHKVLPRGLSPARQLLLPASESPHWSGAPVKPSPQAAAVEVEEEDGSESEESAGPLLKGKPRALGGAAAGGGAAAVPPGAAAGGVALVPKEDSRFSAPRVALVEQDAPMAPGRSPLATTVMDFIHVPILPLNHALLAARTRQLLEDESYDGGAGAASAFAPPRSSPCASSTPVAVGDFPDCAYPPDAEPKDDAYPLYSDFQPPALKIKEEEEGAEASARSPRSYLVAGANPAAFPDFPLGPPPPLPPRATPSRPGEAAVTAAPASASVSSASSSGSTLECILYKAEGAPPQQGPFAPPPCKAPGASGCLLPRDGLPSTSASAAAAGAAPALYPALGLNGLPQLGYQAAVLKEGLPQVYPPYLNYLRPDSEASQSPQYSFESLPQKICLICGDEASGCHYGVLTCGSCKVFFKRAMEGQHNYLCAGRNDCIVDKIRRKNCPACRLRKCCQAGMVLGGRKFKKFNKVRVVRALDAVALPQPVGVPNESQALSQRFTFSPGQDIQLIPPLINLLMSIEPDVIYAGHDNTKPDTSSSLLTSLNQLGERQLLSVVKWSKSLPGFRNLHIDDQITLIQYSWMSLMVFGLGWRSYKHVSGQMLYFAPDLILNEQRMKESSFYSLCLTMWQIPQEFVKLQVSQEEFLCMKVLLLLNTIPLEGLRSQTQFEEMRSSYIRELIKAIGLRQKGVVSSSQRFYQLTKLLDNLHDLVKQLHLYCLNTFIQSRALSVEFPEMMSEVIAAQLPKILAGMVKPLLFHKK

[7] = molecular target: Mu-type opioid receptor (Homo sapiens, UniProt P35372)
[8] = molecular target: Prostaglandin G/H synthase 1 (Homo sapiens, UniProt P23219); format: functional
[9] = molecular target: Sodium-dependent noradrenaline transporter (Homo sapiens, UniProt P23975)
[10] = molecular target: T3, Thromboxane A2 receptor (Homo sapiens, UniProt P21731); format: functional, cell-based
T3 sequence (P21731 whole entry): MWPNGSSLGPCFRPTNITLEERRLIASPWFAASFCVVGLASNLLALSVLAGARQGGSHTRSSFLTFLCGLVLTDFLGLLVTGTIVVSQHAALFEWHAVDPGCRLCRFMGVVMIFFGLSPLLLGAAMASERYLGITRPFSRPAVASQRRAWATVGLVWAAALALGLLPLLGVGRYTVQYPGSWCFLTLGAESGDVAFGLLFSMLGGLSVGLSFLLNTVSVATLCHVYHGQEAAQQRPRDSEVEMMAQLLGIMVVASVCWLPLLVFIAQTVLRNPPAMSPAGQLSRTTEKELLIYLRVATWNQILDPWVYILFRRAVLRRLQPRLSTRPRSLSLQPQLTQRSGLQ

[11] = molecular target: Cannabinoid receptor 1 (Homo sapiens, UniProt P21554); format: functional, cell-based
Further: assay procedure not described here.

Histamine H1 receptor, sequence (P35367 whole entry): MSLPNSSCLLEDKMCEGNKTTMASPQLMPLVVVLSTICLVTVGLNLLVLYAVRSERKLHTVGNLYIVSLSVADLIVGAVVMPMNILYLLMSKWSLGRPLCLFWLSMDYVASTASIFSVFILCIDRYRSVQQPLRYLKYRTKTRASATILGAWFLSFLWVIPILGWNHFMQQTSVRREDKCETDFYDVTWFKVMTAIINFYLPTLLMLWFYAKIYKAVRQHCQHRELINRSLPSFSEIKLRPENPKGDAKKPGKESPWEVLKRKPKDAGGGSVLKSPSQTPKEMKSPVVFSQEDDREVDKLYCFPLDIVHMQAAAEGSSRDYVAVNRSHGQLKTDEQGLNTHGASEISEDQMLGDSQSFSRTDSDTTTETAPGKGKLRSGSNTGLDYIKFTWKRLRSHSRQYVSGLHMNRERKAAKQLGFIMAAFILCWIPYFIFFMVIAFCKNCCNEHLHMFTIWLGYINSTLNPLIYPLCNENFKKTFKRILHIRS
Cannabinoid receptor 1, sequence (P21554 whole entry): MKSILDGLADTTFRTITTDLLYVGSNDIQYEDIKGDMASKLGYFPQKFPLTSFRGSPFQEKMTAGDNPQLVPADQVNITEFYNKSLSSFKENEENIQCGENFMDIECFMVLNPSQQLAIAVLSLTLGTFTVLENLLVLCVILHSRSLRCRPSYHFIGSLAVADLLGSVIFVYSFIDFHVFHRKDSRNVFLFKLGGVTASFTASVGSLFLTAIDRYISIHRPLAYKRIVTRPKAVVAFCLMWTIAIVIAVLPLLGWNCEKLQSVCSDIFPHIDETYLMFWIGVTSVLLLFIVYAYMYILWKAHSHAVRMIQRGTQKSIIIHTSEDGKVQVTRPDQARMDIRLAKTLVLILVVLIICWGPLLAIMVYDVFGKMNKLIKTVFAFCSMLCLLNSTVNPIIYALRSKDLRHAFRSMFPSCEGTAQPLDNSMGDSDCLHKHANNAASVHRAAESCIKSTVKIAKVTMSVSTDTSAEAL
Prostaglandin G/H synthase 1, sequence (P23219 whole entry): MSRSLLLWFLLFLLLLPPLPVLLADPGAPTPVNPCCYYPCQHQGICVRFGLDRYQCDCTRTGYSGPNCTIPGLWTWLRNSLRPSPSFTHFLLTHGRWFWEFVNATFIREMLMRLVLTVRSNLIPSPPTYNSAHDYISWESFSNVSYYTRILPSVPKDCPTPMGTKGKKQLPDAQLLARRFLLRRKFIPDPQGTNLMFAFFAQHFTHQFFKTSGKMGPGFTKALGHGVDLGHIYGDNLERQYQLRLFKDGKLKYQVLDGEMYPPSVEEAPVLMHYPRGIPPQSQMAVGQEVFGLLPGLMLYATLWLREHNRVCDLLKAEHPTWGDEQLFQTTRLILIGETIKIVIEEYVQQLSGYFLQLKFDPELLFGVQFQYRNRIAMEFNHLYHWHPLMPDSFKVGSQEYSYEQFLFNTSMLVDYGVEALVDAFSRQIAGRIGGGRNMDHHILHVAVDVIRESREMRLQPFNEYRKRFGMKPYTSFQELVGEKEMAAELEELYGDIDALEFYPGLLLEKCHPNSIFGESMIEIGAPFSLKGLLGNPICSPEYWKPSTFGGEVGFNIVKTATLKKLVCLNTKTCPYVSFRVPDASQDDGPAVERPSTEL
Muscarinic acetylcholine receptor M3, sequence (P20309 whole entry): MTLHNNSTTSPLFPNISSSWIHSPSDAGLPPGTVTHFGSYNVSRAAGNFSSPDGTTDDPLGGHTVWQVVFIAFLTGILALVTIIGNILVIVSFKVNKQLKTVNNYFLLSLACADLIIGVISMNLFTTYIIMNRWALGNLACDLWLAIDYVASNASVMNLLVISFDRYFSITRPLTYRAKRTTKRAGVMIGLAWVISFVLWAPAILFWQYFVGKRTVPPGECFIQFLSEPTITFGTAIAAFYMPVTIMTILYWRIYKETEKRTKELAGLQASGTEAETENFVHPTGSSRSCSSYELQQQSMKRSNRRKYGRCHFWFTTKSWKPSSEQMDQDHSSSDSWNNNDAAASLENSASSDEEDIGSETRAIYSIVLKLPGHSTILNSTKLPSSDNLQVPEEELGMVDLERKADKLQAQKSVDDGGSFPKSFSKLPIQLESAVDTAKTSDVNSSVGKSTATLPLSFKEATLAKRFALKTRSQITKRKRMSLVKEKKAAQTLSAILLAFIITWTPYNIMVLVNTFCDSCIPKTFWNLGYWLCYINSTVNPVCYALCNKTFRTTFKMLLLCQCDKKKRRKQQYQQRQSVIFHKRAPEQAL
Mu-type opioid receptor, sequence (P35372 whole entry): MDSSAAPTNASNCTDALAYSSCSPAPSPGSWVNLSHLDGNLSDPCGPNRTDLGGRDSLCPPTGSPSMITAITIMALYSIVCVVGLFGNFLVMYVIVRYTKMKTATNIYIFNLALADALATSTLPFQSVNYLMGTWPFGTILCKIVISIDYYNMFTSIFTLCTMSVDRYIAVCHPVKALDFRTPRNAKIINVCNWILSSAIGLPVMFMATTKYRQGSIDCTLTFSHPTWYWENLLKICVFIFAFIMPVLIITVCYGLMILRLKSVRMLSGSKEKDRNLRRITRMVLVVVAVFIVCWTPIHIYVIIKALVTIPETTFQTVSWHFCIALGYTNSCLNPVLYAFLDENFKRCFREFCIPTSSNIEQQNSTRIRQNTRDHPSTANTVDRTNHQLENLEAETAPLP
Voltage-dependent L-type calcium channel subunit alpha-1C, sequence (P22002 whole entry): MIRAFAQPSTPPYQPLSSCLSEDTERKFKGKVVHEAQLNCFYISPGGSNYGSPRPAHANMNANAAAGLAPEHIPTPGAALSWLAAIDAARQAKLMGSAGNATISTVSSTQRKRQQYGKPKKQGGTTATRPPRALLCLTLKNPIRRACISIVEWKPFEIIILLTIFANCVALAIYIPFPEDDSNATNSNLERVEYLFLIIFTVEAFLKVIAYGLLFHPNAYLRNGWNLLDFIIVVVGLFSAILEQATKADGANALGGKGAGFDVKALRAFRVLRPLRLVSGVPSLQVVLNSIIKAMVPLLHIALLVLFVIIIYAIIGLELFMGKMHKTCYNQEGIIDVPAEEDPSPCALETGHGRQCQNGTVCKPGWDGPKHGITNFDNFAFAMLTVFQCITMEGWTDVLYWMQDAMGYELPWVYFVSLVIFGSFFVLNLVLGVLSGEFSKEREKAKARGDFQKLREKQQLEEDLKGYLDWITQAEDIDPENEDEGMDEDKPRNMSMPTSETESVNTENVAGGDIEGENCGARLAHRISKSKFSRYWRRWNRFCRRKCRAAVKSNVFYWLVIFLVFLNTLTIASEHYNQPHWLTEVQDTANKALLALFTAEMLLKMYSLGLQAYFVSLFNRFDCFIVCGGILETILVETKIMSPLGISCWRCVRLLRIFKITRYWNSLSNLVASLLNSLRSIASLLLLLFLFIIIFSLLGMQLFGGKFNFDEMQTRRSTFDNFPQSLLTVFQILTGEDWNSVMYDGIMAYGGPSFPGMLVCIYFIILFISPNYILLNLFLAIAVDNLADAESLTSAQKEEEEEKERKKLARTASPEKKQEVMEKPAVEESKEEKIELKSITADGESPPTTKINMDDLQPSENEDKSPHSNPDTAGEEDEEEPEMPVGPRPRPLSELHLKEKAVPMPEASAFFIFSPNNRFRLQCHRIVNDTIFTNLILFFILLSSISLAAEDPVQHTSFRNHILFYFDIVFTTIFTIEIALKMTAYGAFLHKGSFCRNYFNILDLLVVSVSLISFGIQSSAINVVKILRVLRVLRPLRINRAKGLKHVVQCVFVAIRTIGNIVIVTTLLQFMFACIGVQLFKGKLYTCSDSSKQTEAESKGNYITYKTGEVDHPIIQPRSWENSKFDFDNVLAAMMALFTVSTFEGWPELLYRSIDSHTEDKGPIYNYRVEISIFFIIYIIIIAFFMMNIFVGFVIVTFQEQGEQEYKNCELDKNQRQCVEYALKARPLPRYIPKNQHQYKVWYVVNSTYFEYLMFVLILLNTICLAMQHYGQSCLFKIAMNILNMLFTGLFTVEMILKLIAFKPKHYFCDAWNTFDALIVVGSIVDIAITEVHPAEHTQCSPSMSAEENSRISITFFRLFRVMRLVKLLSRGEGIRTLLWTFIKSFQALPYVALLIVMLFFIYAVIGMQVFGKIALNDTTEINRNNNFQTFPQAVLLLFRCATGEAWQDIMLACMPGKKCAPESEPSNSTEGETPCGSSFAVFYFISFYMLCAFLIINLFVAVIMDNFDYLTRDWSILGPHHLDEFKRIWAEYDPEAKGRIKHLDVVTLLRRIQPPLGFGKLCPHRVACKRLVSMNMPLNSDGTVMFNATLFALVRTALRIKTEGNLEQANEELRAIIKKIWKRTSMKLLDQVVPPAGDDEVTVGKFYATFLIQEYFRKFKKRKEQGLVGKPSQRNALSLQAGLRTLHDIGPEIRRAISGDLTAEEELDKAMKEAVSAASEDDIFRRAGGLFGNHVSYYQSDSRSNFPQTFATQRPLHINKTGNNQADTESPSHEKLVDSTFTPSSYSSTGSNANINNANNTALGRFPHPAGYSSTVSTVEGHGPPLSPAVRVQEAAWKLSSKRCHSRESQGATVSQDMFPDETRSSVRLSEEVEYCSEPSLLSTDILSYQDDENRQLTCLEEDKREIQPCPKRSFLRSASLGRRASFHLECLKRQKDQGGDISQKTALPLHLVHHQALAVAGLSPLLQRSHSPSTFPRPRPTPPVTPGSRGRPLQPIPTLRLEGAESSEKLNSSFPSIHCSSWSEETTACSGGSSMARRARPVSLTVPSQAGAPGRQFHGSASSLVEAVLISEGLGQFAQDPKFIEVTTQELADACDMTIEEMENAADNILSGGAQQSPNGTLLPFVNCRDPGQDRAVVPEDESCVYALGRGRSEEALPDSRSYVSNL

SMILES | AC50 [1] [µM] | AC50 [2] [µM] | AC50 [3] [µM] | AC50 [4] [µM] | AC50 [5] [µM] | AC50 [6] [µM] | AC50 [7] [µM] | AC50 [8] [µM] | AC50 [9] [µM] | AC50 [10] [µM] | AC50 [11] [µM]
COc1ccccc1OCC(O)CN1CCN(CC(=O)Nc2c(C)cccc2C)CC1 (centres undefined) [RANOLAZINE] | > 30 | > 30 | > 30 | > 30 | > 30 | > 30 | – | – | – | – | –
Clc1ccc(C(c2ccccc2Cl)C(Cl)Cl)cc1 (centres undefined) [MITOTANE] | > 10 | – | – | – | – | – | > 30 | – | – | – | –
C[C@]12CC[C@@H]3c4ccc(O)cc4CC[C@H]3[C@@H]1C[C@@H](O)[C@@H]2O [ESTRIOL] | – | – | – | – | – | – | – | 12 | > 30 | > 30 | –
NS(=O)(=O)Cc1noc2ccccc12 [ZONISAMIDE] | > 10 | > 30 | – | > 10 | > 10 | > 10 | > 30 | – | – | – | –
Cc1cn([C@H]2C=C[C@@H](CO)O2)c(=O)[nH]c1=O [STAVUDINE] | > 10 | – | > 30 | > 30 | – | – | > 30 | > 30 | > 30 | > 30 | > 30
Cc1cccc(Nc2ccccc2C(=O)O)c1C [MEFENAMIC ACID] | > 10 | – | – | > 10 | – | > 10 | > 30 | 0.0115 | > 30 | > 30 | –
CN1C(C(=O)Nc2ccccn2)=C(O)c2sc(Cl)cc2S1(=O)=O [LORNOXICAM] | > 10 | > 30 | > 30 | > 10 | > 10 | – | > 30 | – | – | – | > 30
O=C(O[C@H]1C[C@H]2CC[C@@H](C1)[N+]21CCCC1)C(O)(c1ccccc1)c1ccccc1 [TROSPIUM] | > 30 | 0.0089 | > 30 | > 30 | 11 | > 30 | – | – | – | – | –
COC(c1ccccc1)(c1ccccc1)[C@H](Oc1nc(C)cc(C)n1)C(=O)O [AMBRISENTAN] | – | – | – | – | – | – | – | > 30 | > 30 | > 30 | –
CC1(C)NC(=O)N(c2ccc([N+](=O)[O-])c(C(F)(F)F)c2)C1=O [NILUTAMIDE] | > 30 | > 30 | – | > 30 | > 30 | > 30 | – | > 30 | > 30 | > 3 | –
CC1=C(C(=O)O)N2C(=O)[C@@H](NC(=O)[C@H](N)c3ccccc3)[C@H]2SC1 [CEPHALEXIN ANHYDROUS] | > 10 | – | > 30 | > 10 | – | – | – | – | – | – | > 30
CC(C)(S)[C@@H](N)C(=O)O [PENICILLAMINE] | – | – | – | – | – | – | – | – | > 30 | > 30 | –
C=CCc1ccccc1OCC(O)CNC(C)C (centres undefined) [ALPRENOLOL] | > 30 | > 30 | > 30 | > 30 | > 30 | > 30 | – | > 0.3 | > 0.3 | > 0.3 | > 30
COc1ccc(CC(C)(C)NC[C@H](O)c2cc(O)cc3c2OCC(=O)N3)cc1 [OLODATEROL] | – | > 30 | > 30 | > 30 | > 30 | > 30 | > 30 | – | – | – | > 30
